Measurements: ChEMBL document CHEMBL1136555, “Antitumour benzothiazoles. Part 20: 3'-cyano and 3'-alkynyl-substituted 2-(4'-aminophenyl)benzothiazoles as new potent and selective analogues” (Bioorg Med Chem Lett, 2003)

Tests used:
[1] = system: MCF7; assay: (§1) Inhibitory activity of compound against breast cancer cell line MCF-7, following 72 hr treatment; format: functional; conditions: Homo sapiens, MCF7, 72 h
[2] = system: MDA-MB-468; assay: (§2) Inhibitory activity of compound against breast cancer cell line MDA 468, following 72 hr treatment; format: functional; conditions: Homo sapiens, MDA-MB-468, 72 h
[3] = system: 786-0; assay: Compound tested for growth inhibition of renal cancer cell line 786-0; format: functional; conditions: Homo sapiens
[4] = system: A498; assay: Compound tested for growth inhibition of renal cancer cell line A498; format: functional; conditions: Homo sapiens
[5] = system: A549; assay: Compound tested for growth inhibition of non-small cell lung cancer cell line A549/ATCC; format: functional; conditions: Homo sapiens
[6] = system: BT-549; assay: Compound tested for growth inhibition of breast cancer cell line BT-549; format: functional; conditions: Homo sapiens
[7] = system: DU-145; assay: Compound tested for growth inhibition of prostate cancer cell line DU-145; format: functional; conditions: Homo sapiens
[8] = system: HCT-15; assay: Compound tested for growth inhibition of colon cancer cell line HCT-15; format: functional; conditions: Homo sapiens
[9] = system: HT-29; assay: Compound tested for growth inhibition of colon cancer cell line HT-29; format: functional; conditions: Homo sapiens
[10] = system: HOP-62; assay: Compound tested for growth inhibition of non-small cell lung cancer cell line HOP-62; format: functional; conditions: Homo sapiens
[11] = system: HCT-116; assay: Compound tested for growth inhibition of colon cancer cell line HCT116; format: functional; conditions: Homo sapiens
[12] = system: HOP-92; assay: Compound tested for growth inhibition of non-small cell lung cancer cell line HOP-92; format: functional; conditions: Homo sapiens
[13] = system: HCC 2998; assay: Compound tested for growth inhibition of colon cancer cell line HCC2998; format: functional; conditions: Homo sapiens
[14] = system: Hs-578T; assay: Compound tested for growth inhibition of breast cancer cell line HS 578T; format: functional; conditions: Homo sapiens
[15] = system: IGROV-1; assay: Compound tested for growth inhibition of ovarian cancer cell line […]; format: functional; conditions: Homo sapiens
[16] = system: K562; assay: Compound tested for growth inhibition of leukemia cell line K-562; format: functional; conditions: Homo sapiens
[17] = system: KM12; assay: Compound tested for growth inhibition of colon cancer cell line KM12; format: functional; conditions: Homo sapiens
[18] = system: M14; assay: Compound tested for growth inhibition of melanoma cell line M14; format: functional; conditions: Homo sapiens
[19] = system: LOX IMVI; assay: Compound tested for growth inhibition of melanoma cell line LOX IMVI; format: functional; conditions: Homo sapiens
[20] = system: MCF7; assay: Compound tested for growth inhibition of breast cancer cell line MCF-7; format: functional; conditions: Homo sapiens
[21] = system: MDA-MB-231; assay: Compound tested for growth inhibition of breast cancer cell line MDA-MB-231/ATCC; format: functional; conditions: Homo sapiens
[22] = system: MDA-N; assay: Compound tested for growth inhibition of breast cancer cell line MDA-N; format: functional; conditions: Homo sapiens
[23] = system: MOLT-4; assay: Compound tested for growth inhibition of leukemia cell line MOLT-4; format: functional; conditions: Homo sapiens
[24] = system: Malme-3M; assay: Compound tested for growth inhibition of melanoma cell line MALME-3M; format: functional; conditions: Homo sapiens
[25] = system: NCI-H522; assay: Compound tested for growth inhibition of non-small cell lung cancer cell line NCI-H522; format: functional; conditions: Homo sapiens
[26] = system: NCI-H322M; assay: Compound tested for growth inhibition of non-small cell lung cancer cell line NCI-H322M; format: functional; conditions: Homo sapiens
[27] = system: OVCAR-3; assay: Compound tested for growth inhibition of ovarian cancer cell line OVCAR-3; format: functional; conditions: Homo sapiens
[28] = system: NCI-H226; assay: Compound tested for growth inhibition of non-small cell lung cancer cell line NCI-H226; format: functional; conditions: Homo sapiens
[29] = system: OVCAR-8; assay: Compound tested for growth inhibition of ovarian cancer cell line OVCAR-8; format: functional; conditions: Homo sapiens
[30] = system: NCI-H460; assay: Compound tested for growth inhibition of non-small cell lung cancer cell line NCI-H460; format: functional; conditions: Homo sapiens
[31] = system: OVCAR-5; assay: Compound tested for growth inhibition of ovarian cancer cell line OVCAR-5; format: functional; conditions: Homo sapiens
[32] = system: PC-3; assay: Compound tested for growth inhibition of prostate cancer cell line PC-3; format: functional; conditions: Homo sapiens
[33] = system: RPMI-8226; assay: Compound tested for growth inhibition of leukemia cell line RPMI-8226; format: functional; conditions: Homo sapiens
[34] = system: SF-268; assay: Compound tested for growth inhibition of CNS cancer cell line SF-268; format: functional; conditions: Homo sapiens
[35] = system: SK-MEL-2; assay: Compound tested for growth inhibition of melanoma cell line SK-MEL-2; format: functional; conditions: Homo sapiens
[36] = system: SF-295; assay: Compound tested for growth inhibition of CNS cancer cell line SF-295; format: functional; conditions: Homo sapiens
[37] = system: SF-539; assay: Compound tested for growth inhibition of CNS cancer cell line SF-539; format: functional; conditions: Homo sapiens
[38] = system: SN12C; assay: Compound tested for growth inhibition of renal cancer cell line SN12C; format: functional; conditions: Homo sapiens
[39] = system: SNB-19; assay: Compound tested for growth inhibition of CNS cancer cell line SNB-19; format: functional; conditions: Homo sapiens
[40] = system: SK-MEL-5; assay: Compound tested for growth inhibition of melanoma cell line SK-MEL-5; format: functional; conditions: Homo sapiens
[41] = system: SK-OV-3; assay: Compound tested for growth inhibition of ovarian cancer cell line SK-OV-3; format: functional; conditions: Homo sapiens
[42] = system: SK-MEL-28; assay: Compound tested for growth inhibition of melanoma cell line SK-MEL-28; format: functional; conditions: Homo sapiens
[43] = system: T47D; assay: Compound tested for growth inhibition of breast cancer cell line T-47-D; format: functional; conditions: Homo sapiens
[44] = system: TK-10; assay: Compound tested for growth inhibition of renal cancer cell line TK-10; format: functional; conditions: Homo sapiens
[45] = system: UO-31; assay: Compound tested for growth inhibition of renal cancer cell line UO-31; format: functional; conditions: Homo sapiens
[46] = system: UACC-257; assay: Compound tested for growth inhibition of melanoma cell line UACC-257; format: functional; conditions: Homo sapiens
[47] = system: U-251; assay: Compound tested for growth inhibition of CNS cancer cell line U251; format: functional; conditions: Homo sapiens
[48] = system: UACC-62; assay: Compound tested for growth inhibition of melanoma cell line UACC-62; format: functional; conditions: Homo sapiens
[49] = system: ACHN; assay: Compound tested for growth inhibition of renal cancer cell line ACHN; format: functional; conditions: Homo sapiens
[50] = system: OVCAR-4; assay: Compound tested for growth inhibition of ovarian cancer cell line OVCAR-4; format: functional; conditions: Homo sapiens
[51] = system: NCI-H23; assay: Compound tested for growth inhibition of non-small cell lung cancer cell line NCI-H23; format: functional; conditions: Homo sapiens
[52] = system: NCI/ADR-RES; assay: Compound tested for growth inhibition of breast cancer cell line NCI/ADR-RES; format: functional; conditions: Homo sapiens
[53] = system: RXF 393; assay: Compound tested for growth inhibition of renal cancer cell line RFX 393; format: functional; conditions: Homo sapiens
[54] = system: SNB-75; assay: Compound tested for growth inhibition of CNS cancer cell line SNB-75; format: functional; conditions: Homo sapiens
[55] = system: CAKI-1; assay: Compound tested for growth inhibition of renal cancer cell line CAKI-1; format: functional; conditions: Homo sapiens
[56] = system: MDA-MB-435; assay: Compound tested for growth inhibition of breast cancer cell line MDA-MB-435; format: functional; conditions: Homo sapiens
[57] = system: SW-620; assay: Compound tested for growth inhibition of colon cancer cell line SW-620; format: functional; conditions: Homo sapiens
[58] = system: MCF7; assay: as §1; format: functional, cell-based; conditions: Homo sapiens, MCF7, 72 h
[59] = system: MDA-MB-468; assay: as §2; format: functional, cell-based; conditions: Homo sapiens, MDA-MB-468, 72 h

C#Cc1cc(-c2nc3ccc(F)cc3s2)ccc1N
GI50 [1]: 0.11 µM
GI50 [2]: 0.023 µM

C#Cc1cc(-c2nc3ccccc3s2)ccc1N
GI50 [1]: 0.049 µM
GI50 [2]: 0.015 µM

C#Cc1cc(-c2nc3c(F)cccc3s2)ccc1N
GI50 [1]: 0.11 µM
GI50 [2]: 0.03 µM

C[Si](C)(C)C#Cc1cc(-c2nc3ccccc3s2)ccc1N
GI50 [1]: 0.71 µM
GI50 [2]: 0.56 µM

N#Cc1cc(-c2nc3cc(F)ccc3s2)ccc1N
GI50 [3]: 31.6 µM
GI50 [4]: 8.51 µM
GI50 [5]: 0.214 µM
GI50 [6]: 3.8 µM
GI50 [7]: 51.3 µM
GI50 [8]: 0.389 µM
GI50 [9]: 1.62 µM
GI50 [10]: 17 µM
GI50 [11]: 15.8 µM
GI50 [12]: 2.63 µM
GI50 [13]: < 0.01 µM
GI50 [14]: 8.51 µM
GI50 [15]: < 0.01 µM
GI50 [16]: > 100 µM
GI50 [17]: 0.0977 µM
GI50 [18]: 25.7 µM
GI50 [19]: > 100 µM
GI50 [1]: 0.0057 µM
GI50 [20]: < 0.01 µM
GI50 [21]: 7.41 µM
GI50 [2]: 0.0078 µM
GI50 [22]: > 100 µM
GI50 [23]: > 100 µM
GI50 [24]: > 100 µM
GI50 [25]: 28.2 µM
GI50 [26]: 0.0115 µM
GI50 [27]: 28.2 µM
GI50 [28]: 14.5 µM
GI50 [29]: > 100 µM
GI50 [30]: < 0.01 µM
GI50 [31]: 0.0372 µM
GI50 [32]: 24 µM
GI50 [33]: > 100 µM
GI50 [34]: 12 µM
GI50 [35]: 13.5 µM
GI50 [36]: 16.6 µM
GI50 [37]: 8.71 µM
GI50 [38]: > 100 µM
GI50 [39]: 9.12 µM
GI50 [40]: 0.537 µM
GI50 [41]: 20.9 µM
GI50 [42]: > 100 µM
GI50 [43]: 0.0144 µM
GI50 [44]: 0.0302 µM
GI50 [45]: 49 µM
GI50 [46]: > 100 µM
GI50 [47]: 8.71 µM
GI50 [48]: 6.61 µM
GI50 [49]: 0.759 µM
GI50 [50]: 1.38 µM
GI50 [51]: < 0.01 µM
GI50 [52]: > 100 µM
GI50 [53]: 2.4 µM
GI50 [54]: 0.832 µM
GI50 [55]: > 100 µM
GI50 [56]: > 100 µM
GI50 [57]: > 100 µM

N#Cc1cc(-c2nc3ccccc3s2)ccc1N
GI50 [1]: 0.58 µM
GI50 [2]: 0.34 µM

C[Si](C)(C)C#Cc1cc(-c2nc3c(F)cccc3s2)ccc1N
GI50 [1]: 0.52 µM
GI50 [2]: 0.23 µM

C#Cc1cc(-c2nc3cc(F)ccc3s2)ccc1N
GI50 [1]: 0.011 µM
GI50 [2]: 0.0068 µM

N#Cc1cc(-c2nc3c(F)cccc3s2)ccc1N
GI50 [1]: 0.18 µM
GI50 [2]: 0.08 µM

Nc1ccc(-c2nc3ccccc3s2)cc1
IC50 [58]: < 0.001 µM
IC50 [59]: < 0.001 µM

C[Si](C)(C)C#Cc1cc(-c2nc3ccc(F)cc3s2)ccc1N
GI50 [1]: 0.68 µM
GI50 [2]: 0.4 µM

N#Cc1cc(-c2nc3ccc(F)cc3s2)ccc1N
GI50 [1]: 0.82 µM
GI50 [2]: 0.32 µM

C[Si](C)(C)C#Cc1cc(-c2nc3cc(F)ccc3s2)ccc1N
GI50 [1]: 0.16 µM
GI50 [2]: 0.21 µM
